Data taken from patent US7897340B2, “Use of tumor susceptibilty gene 101 (TSG 101) as a prognostic and diagnostic marker” (The Board of Regents of the University of Texas System, priority 2006, dated 2011).
Entries after “also recorded” stand apart in the source; their conditions may differ.

Key:
SKOV-3 cells [1] = assay: Cell viability MTT assay; format: cell-based, human; settings: SKOV-3, days 3 to 7 post transfection, vs scrambled control siRNA
Excerpt: A siRNA duplex specific for TSG101 (targeting TSG101 coding sequence 413-433) and a scrambled random control siRNA with matching GC content were obtained from Dharmacon. This specific TSG101 siRNA duplex (sense: CCUCCAGUCUUCUCUCGUCdTdT (SEQ ID NO: 7) and antisense: dTd[…] (SEQ ID NO: 8) have been successfully applied to suppress the expression of endogenous TSG101 in several high quality studies (Amit et al., 2004; Garrus et al., 2001; Hewitt et al., 2002; Ismaili et al., 2005). Transfection of the siRNAs was according to the manufacturer's instructions using Lipofectamine 2000 (Invitrogen).
SKOV-3 cells were trypsinized 48 hrs post-transfection with siRNAs and plated at 2×10^3 cells/well in 96 well plates, with 5 wells for each treatment. On subsequent days (days 3 to 7), media was removed and 100 μl/well fresh media was added along with 10 μl of 3-(4,5-dimethylthiazol-2-yl)-2,5-diphenyl tetrazolium bromide (MTT) to a final concentration of 500 μg/ml. Cells were incubated for 3 hrs at 37° C., and then lysed by adding 200 μl/well DMSO and incubating at 37° C. for 1 hr. Cell viability was measured by reduction of MTT, which registered absorbance at 595 nm on a Molecular Devices microplate reader.

SKOV-3 cells [2] = assay: In vivo tumor formation assay in nude mice; design: species or system Balb/c athymic nude mice; settings: siRNA-transfected SKOV-3 cells injected s.c. into flanks of nude mice, four mice, vs control siRNA cells
Experimental: SKOV-3 cells were trypsinized 3 days following transfection with either Control or TSG101 siRNA, and subsequently washed and resuspended in phosphate-buffered saline at 5×10^6 cells/ml. 200 μl (1×10^6 cells) of control or TSG101 transfected SKOV-3 cells were injected s.c. into the right and left flanks (respectively) of 4-6 week old Balb/c athymic nude mice (Jackson Laboratory, Bar Harbor, Me.). Mice were examined every 5 days until visible tumors appeared. Subsequently, tumor volume measurements were taken every 3-5 days, and mice were sacrificed 6 weeks after initial injections, and a final measurement of tumor volume was taken.
Further, in vivo tumor formation assay in nude mice was performed to determine if TSG101 knockdown affected the tumorigenicity of SKOV-3 cells. Seventy-two hours post transfection, SKOV-3 cells transfected either with TSG101 or control siRNA duplex were pair-wise injected subcutaneously into the left or right flanks, respectively, of the same BALB/c athymic nude mouse. Tumor growth was monitored for 6 weeks, at which time the tumors were harvested and tumor volume was measured. […] Due to the transient nature of the siRNA duplex, the actual effect of TSG101 gene silencing should be more prominent.

[3] = tested on: HIF-1α transcriptional activity; assay: HIF-1α GFP reporter assay (HRE-GFP) in SKOV-3 cells; format: cell-based, human
Experimental: Cells were plated at 1×10^5 in 3.5 cm wells and grown overnight at 37° C. The following day cells were transfected with 375 ng/well of either TSG101 or control siRNA duplex using Lipofectamine 2000. Cells were then passaged at 48 hrs post-transfection and used for subsequent experiments. The HIF-1α response element (HRE)-GFP reporter (a generous gift from Mark Dewhirst) was transfected into cells 48 hrs after transfection with siRNA reagents, and subsequently plated onto microscope cover slips. On the fifth day following siRNA transfection, cells on cover slips were rinsed in PBS and fixed in 2% paraformaldehyde for 15 min. Nuclear staining was carried out with DAPI (5 ng/ml) for 5 min, after which slides were mounted and observed using a fluorescence microscope (Olympus BX51) equipped with a Hamamatsu digital camera (C4742-95).
To test the functional consequence of TSG101 knock-down mediated down-regulation of CITED2/HIF-1 ? HIF-1 ? transcriptional activity was examined using a HIF-1-inducible fluorescent reporter. This construct was created by splicing five copies of the hypoxia regulatory element (HRE) upstream of enhanced green fluorescent protein (GFP), which provided a convenient method for monitoring HIF-1 activity levels by following GFP expression using fluorescence microscopy (Moeller et al., 2004).

caspase 3 = assay: Caspase activity assay; format: cell-based, human; settings: SKOV-3 lysates, 6 days following transfection
Experimental: SKOV-3 cells transfected with either control or TSG101 siRNA were grown in 10 cm plates to 70-80% confluence, then harvested by trypsinization, washed twice in PBS and once in wash buffer (100 mM HEPES pH 7.4, 0.5 mM EDTA, 1 mM DTT, 0.1 mM PMSF, 2 μg/ml leupeptin, 2 μg/ml pepstatin). The cells were lysed on ice for 30 min with frequent vortexing in 150 μl of lysis buffer (wash buffer plus 1% Triton-X100). Cell debris was removed by centrifugation at 16,000 g for 20 min at 4° C. Lysate protein concentration was determined by Bradford assay (Bio-Rad). Caspase 3 activity was measured using fluorogenic substrates […] that is specific for caspase 3. Release of free AFC was monitored using a Fluoroskan fluorescence microplate reader with excitation and emission set to 405 and 510 nm, correspondingly.

p21 promoter = p21 promoter luciferase reporter assay in SKOV-3 cells; format: cell-based, human
Excerpt: To investigate the mechanism by which TSG101 silencing induced the accumulation of p21 mRNA, a plasmid construct, p21P, with a luciferase reporter gene under the transcriptional control of the p21 promoter was co-transfected into the SKOV-3 cells either with TSG101 specific or control siRNA. […] Since SKOV-3 cells are p53-null, this apparent TSG101 silencing-mediated transcriptional activation of p21 was most likely p53-independent.
To further confirm this observation, the luciferase reporter activity was monitored using a deletion p21 reporter construct, p21PΔ1.1, which contained a 1.1 kb deletion that removed the consensus p53-responsive element from the 5′ region of the 2.4 kb p21 promoter 27. […] Since TSG101 contained a putative DNA-binding domain and could act as a general transcriptional suppressor 2, it was hypothesized that TSG101, acting as a transcriptional corepressor, suppressed the transactional activation of p21 by binding to the p21 promoter. Consequently, suppression of TSG101 by siRNA led to the transcriptional activation of p21.

[4] = tested on: TSG101 recruitment to the p21 promoter; assay: Chromatin immunoprecipitation (ChIP) assay with TSG101 antibody; format: cell-based, human; settings: SKOV-3, ChIP with TSG101 antibody, vs control siRNA
Excerpt: Pelleted DNA was resuspended in TBE. […] ID NO: 11), reverse [NT] ID NO:12).

TSG101 siRNA: siRNA duplex from Dharmacon targeting TSG101 coding sequence 413-433, SEQ ID NO: 7 and 8 (chain 1 CCUCCAGUCUUCUCUCGUCTT; chain 2 TTGGAGGUCAGAAGAGAGCAG; chemistry not fully specified; one strand is listed 3' to 5')
cell viability (MTT) (SKOV-3 cells [1]): decrease dramatically in number beginning 5 days post transfection
tumor volume (SKOV-3 cells [2]): significantly smaller; also recorded: reduced tumor growth
fluorescent signal from GFP expression (HRE-GFP) ([3]; SKOV-3, fluorescence microscopy, 4 days post-transfection as printed): significantly decreased
GFP protein expression (HRE-GFP) ([3]; SKOV-3, immunoblotting): significantly decreased expression of GFP
caspase 3 activity (caspase 3): apparent increases
induction of p21 (luciferase reporter) (p21 promoter; SKOV-3, full-length p21 promoter construct p21P): 6 fold
luciferase activity (p21 promoter reporter) (p21 promoter; SKOV-3, p21P construct co-transfected with siRNA, vs control siRNA): significantly increased; also recorded: potentiates p21 transcription
induction of p21 (luciferase reporter) (p21 promoter; SKOV-3, p53-deletion construct p21PΔ1.1): 6 fold
recruitment of TSG101 to the p21 promoter [4]: dramatically reduced
